Assay results reported in PubChem BioAssay (NCI).
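48-hour exposure; five concentrations; linearly interpolated endpoints. The concentration for 50% growth inhibition is given as GI50. The concentration for full growth arrest is given as TGI.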

Assays:
Test in all cases: DTP human tumour cell line panel, 48 h; in the data active = GI50 below about 0.43 µM; inactive = the rest
[1] = system: OVCAR-4 ovarian
[2] = system: HCT-15 colon
[3] = system: SF-268 CNS
[4] = system: KM12 colon
[5] = system: SK-MEL-5 melanoma
[6] = system: A498 renal
[7] = system: HL-60(TB) leukemia
[8] = system: SR leukemia
[9] = system: COLO 205 colon
[10] = system: MDA-MB-435
[11] = system: SNB-75 CNS
[12] = system: HOP-62 NSCLC
[13] = system: OVCAR-3 ovarian
[14] = system: MCF7 breast
[15] = system: NCI-H23 lung
[16] = system: SK-MEL-28 melanoma
[17] = system: UO-31 renal
[18] = system: RPMI-8226 leukemia
[19] = system: EKVX NSCLC
[20] = system: HS 578T breast
[21] = system: OVCAR-8 ovarian
[22] = system: SNB-19 CNS
[23] = system: CAKI-1 renal
[24] = system: HCC-2998 colon
[25] = system: ACHN renal
[26] = system: DU-145 prostate
[27] = system: NCI/ADR-RES ovarian
[28] = system: RXF 393 renal
[29] = system: SF-295 CNS
[30] = system: SF-539 CNS
[31] = system: SK-OV-3 ovarian
[32] = system: HT29 colon
[33] = system: PC-3 prostate
[34] = system: SN12C renal
[35] = system: 786-0 renal
[36] = system: TK-10 renal
[37] = system: NCI-H460 lung
[38] = system: UACC-257 melanoma
[39] = system: M14 melanoma
[40] = system: IGROV1 ovarian
[41] = system: A549 NSCLC
[42] = system: NCI-H522 lung
[43] = system: UACC-62 melanoma
[44] = system: MALME-3M melanoma
[45] = system: MDA-MB-468 breast
[46] = system: T-47D breast
[47] = system: MDA-MB-231 breast
[48] = system: HOP-92 NSCLC
[49] = system: SK-MEL-2 melanoma
[50] = system: K-562 leukemia
[51] = system: NCI-H226 lung
[52] = system: SW-620 colon
[53] = system: MOLT-4 leukemia
[54] = system: BT-549 breast
[55] = system: U251 CNS
[56] = system: OVCAR-5 ovarian

COc1ccc(-c2nc(Nc3ccccc3S(N)(=O)=O)c3ccccc3n2)cc1
15.1 µM: TGI [14]
28.3 µM: TGI [25]
57.6 µM: TGI [6]
10.4 µM: TGI [5]
50.4 µM: TGI [44]
81.3 µM: TGI [36]
13.4 µM: TGI [2]
71.3 µM: TGI [31] | TGI [48]
32.2 µM: TGI [32]
45.4 µM: TGI [12]
25.7 µM: TGI [42]
32.1 µM: TGI [3]
42.5 µM: TGI [23]
7.13 µM: TGI [51]
16.6 µM: TGI [27]
32.9 µM: TGI [26]
33.4 µM: TGI [17]
30.9 µM: TGI [41]
14.2 µM: TGI [55]
12.2 µM: TGI [30]
13.7 µM: TGI [24]
63.3 µM: TGI [22]
8.01 µM: TGI [45]
5.77 µM: TGI [47]
> 100 µM: TGI [1] | TGI [4] | TGI [7] | TGI [8] | TGI [9] | TGI [10] | TGI [11] | TGI [13] | TGI [16] | TGI [18] | TGI [20] | TGI [21] | TGI [33] | TGI [34] | TGI [38] | TGI [39] | TGI [40] | TGI [43] | TGI [46] | TGI [49] | TGI [50] | TGI [53] | TGI [54] | TGI [56]
7.27 µM: TGI [28]
inactive: GI50 [1] 28.9 µM | GI50 [2] 3.74 µM | GI50 [3] 3.62 µM | GI50 [4] 4.27 µM | GI50 [5] 2.76 µM | GI50 [6] 10.5 µM | GI50 [7] > 100 µM | GI50 [8] 6.28 µM | GI50 [9] 5.29 µM | GI50 [10] 4.36 µM | GI50 [11] 2.32 µM | GI50 [12] 12.8 µM | GI50 [13] 14.3 µM | GI50 [14] 2.55 µM | GI50 [15] 2.4 µM | GI50 [16] 7.31 µM | GI50 [17] 9.42 µM | GI50 [18] 4.35 µM | GI50 [19] 5.35 µM | GI50 [20] 4.28 µM | GI50 [21] 6.41 µM | GI50 [22] 18 µM | GI50 [23] 3.93 µM | GI50 [24] 3.46 µM | GI50 [25] 6.39 µM | GI50 [26] 4.67 µM | GI50 [27] 3.19 µM | GI50 [28] 1.91 µM | GI50 [29] 3 µM | GI50 [30] 3.05 µM | GI50 [31] 15.7 µM | GI50 [32] 4 µM | GI50 [33] 7.21 µM | GI50 [34] > 100 µM | GI50 [35] 3.75 µM | GI50 [36] 21.7 µM | GI50 [37] 2.79 µM | GI50 [38] > 100 µM | GI50 [39] 6.06 µM | GI50 [40] 99.2 µM | GI50 [41] 3.7 µM | GI50 [42] 4.19 µM | GI50 [43] 8.84 µM | GI50 [44] 5.24 µM | GI50 [45] 2.55 µM | GI50 [46] 3.47 µM | GI50 [47] 2.14 µM | GI50 [48] 7.68 µM | GI50 [49] > 100 µM | GI50 [50] 4.49 µM | GI50 [51] 2.04 µM | GI50 [52] 4.19 µM | GI50 [53] 4.41 µM | GI50 [54] 22.5 µM | GI50 [55] 3.31 µM | GI50 [56] 46.1 µM
97.9 µM: TGI [52]
8.9 µM: TGI [37]
7.91 µM: TGI [15]
28.4 µM: TGI [19]
14.6 µM: TGI [35]
13.2 µM: TGI [29]
